The record followed here is patent US6825223B2, “Anilide compounds and pharmaceutical compositions comprising them” (Kowa Company, Ltd., priority 1996, dated 2004).

SMILES strings stand for the structures.

In assay [1] the target is T1, ACAT (small intestine-derived enzyme) (Oryctolagus cuniculus, UniProt G1SFD9).
T1 sequence (G1SFD9 1-524): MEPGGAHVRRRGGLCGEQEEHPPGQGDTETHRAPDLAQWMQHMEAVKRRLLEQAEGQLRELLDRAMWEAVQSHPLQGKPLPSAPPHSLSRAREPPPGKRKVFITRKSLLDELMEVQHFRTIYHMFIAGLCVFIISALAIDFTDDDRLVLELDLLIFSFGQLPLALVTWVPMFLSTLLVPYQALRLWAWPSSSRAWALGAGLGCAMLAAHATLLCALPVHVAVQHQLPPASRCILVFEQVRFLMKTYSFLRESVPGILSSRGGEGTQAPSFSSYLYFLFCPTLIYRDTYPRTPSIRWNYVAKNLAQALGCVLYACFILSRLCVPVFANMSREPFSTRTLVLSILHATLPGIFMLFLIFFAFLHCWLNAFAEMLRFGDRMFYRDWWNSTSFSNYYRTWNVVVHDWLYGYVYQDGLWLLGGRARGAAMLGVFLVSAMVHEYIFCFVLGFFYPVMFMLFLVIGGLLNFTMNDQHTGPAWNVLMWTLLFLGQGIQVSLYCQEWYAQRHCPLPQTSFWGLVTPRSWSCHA
The assay can be described thus: ACAT inhibiting activity, small intestine-derived enzyme liquid. In kind it is biochemical, rabbit. The conditions noted are these: small intestines of rabbits fed ordinary feed; 14C-oleoyl-CoA; 37° C. 3 minutes. Here is the method: (§1) Rabbits were fed with 1% cholesterol feed for 8 weeks. Microsomes were prepared from the thoracoaorta of the rabbits in an ordinary manner, and suspended in 0.15 M phosphate buffer (pH 7.4) to prepare blood vessel wall-derived enzyme liquids, Small intestine-derived enzyme liquids were prepared from the small intestines of rabbits fed with ordinary feed. […] 10 μl of the enzyme liquid was added to the resulting solution and reacted at 37° C. for 5 minutes (for small intestine-derived enzyme liquids, for 3 minutes), and thereafter 3 ml of chloroform/methanol (2/1) and 0.5 ml of 0.04 N HCl were added thereto to stop the reaction. After the reaction, lipids were extracted from the reaction mixtures. The solvent layer was concentrated to dryness, then dissolved in hexane, spotted on a TLC plate (produced by Merck), and developed thereon with a developer of hexane/ether/acetic acid (75/25/1) The radioactivity of the thus-fractionated cholesterol ester fraction was measured with BAS2000 (produced by Fuji Film).

For the next assay, the target named is T2, ACAT in J774 cell (Mus musculus, UniProt Q61263).
T2 construct: endogenous in cells; host or cells: J774 cells
T2 sequence (Q61263 1-540): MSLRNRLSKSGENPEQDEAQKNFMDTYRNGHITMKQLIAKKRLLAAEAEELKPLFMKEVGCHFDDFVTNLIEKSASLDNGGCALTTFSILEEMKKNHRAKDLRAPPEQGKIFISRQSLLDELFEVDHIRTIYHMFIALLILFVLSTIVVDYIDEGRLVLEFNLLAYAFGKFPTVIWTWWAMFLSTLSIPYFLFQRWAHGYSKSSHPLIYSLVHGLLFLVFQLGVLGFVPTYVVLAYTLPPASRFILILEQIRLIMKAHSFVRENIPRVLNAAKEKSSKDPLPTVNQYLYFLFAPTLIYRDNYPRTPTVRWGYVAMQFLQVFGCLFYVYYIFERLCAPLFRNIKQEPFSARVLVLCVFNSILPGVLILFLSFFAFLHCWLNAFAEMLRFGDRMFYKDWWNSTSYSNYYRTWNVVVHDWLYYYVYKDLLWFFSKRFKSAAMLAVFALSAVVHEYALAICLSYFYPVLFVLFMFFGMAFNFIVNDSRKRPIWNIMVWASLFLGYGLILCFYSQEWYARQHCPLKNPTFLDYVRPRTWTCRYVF
Put plainly: ACAT inhibiting activity in J774 cell (anti-foaming activity). The following applies: for IC50 (HepG 2)/IC50 (J 774): ratio of the two cell IC50 values; for IC50: J774 cell, 10 μg/ml 25-OH cholesterol, 18 hours, cholesterol ester per protein, read-out: J 774 Cell-Derived Enzyme IC50. In kind it is cell-based. The method, then: (§2) ACAT inhibiting activities in J774 cell and HepG2 cell (Anti-foaming activities).
(§3) J774 cell and HepG2 cell were sown on 24-holes-plates, and J774 cell was cultured with DMEM culturing solution (including 10% fetal bovine serum) and HepG2 cell was cultured with MEM culturing solution (including 10% fatal bovine serum) and they were incubated with 5% CO2 at 37° C. for 24 hours. […] After redwing the medium, each cultured cell was washed with PBS two ties, and then extracted with 1.5 ml of hexane:iso-propanol (3:2), and concentrated and dried. Each extracted substance was dissolved into iso-propanol including 0.2 ml of 10% Triton X-100. And total cholesterol (TC) of each was measured with Cholesterol E Test Wako (Wako Junyaku Co.), and free cholesterol […] of each was measured with Free Cholesterol E Test Wako (Wako Junyaku Co.). The residue of extracting was dissolved with 0.25 ml of 2N NaOH at 37° C. for 30 minutes, and an amount of protein was measured with BCA Protein Assay Reagent (Pierce). The amount of cholesterol ester per protein was calculated based on a difference between TC and FC, and IC50 was calculated in contrast with control.

A further assay relates to ACAT in HepG2 cell. Put plainly: ACAT inhibiting activity in HepG2 cell. In kind it is cell-based. The conditions noted are these: 10 μg/ml 25-OH cholesterol, 18 hours, cholesterol ester per protein, read-out: HepG 2-Derived Enzyme IC50. The method, then: as §2, §3
For assay [2], the target named is ACAT (blood vessel wall-derived enzyme) (Oryctolagus cuniculus, UniProt G1SUQ0). The assay can be described thus: ACAT inhibiting activity, blood vessel wall-derived enzyme liquid (thoracoaorta microsomes). The following applies: microsomes from thoracoaorta of rabbits fed 1% cholesterol feed; 14C-oleoyl-CoA; 37° C. 5 minutes. In kind it is biochemical, rabbit. Here is the method: as §1
Chain of ACAT (blood vessel wall-derived enzyme) (G1SUQ0 entry or part of it): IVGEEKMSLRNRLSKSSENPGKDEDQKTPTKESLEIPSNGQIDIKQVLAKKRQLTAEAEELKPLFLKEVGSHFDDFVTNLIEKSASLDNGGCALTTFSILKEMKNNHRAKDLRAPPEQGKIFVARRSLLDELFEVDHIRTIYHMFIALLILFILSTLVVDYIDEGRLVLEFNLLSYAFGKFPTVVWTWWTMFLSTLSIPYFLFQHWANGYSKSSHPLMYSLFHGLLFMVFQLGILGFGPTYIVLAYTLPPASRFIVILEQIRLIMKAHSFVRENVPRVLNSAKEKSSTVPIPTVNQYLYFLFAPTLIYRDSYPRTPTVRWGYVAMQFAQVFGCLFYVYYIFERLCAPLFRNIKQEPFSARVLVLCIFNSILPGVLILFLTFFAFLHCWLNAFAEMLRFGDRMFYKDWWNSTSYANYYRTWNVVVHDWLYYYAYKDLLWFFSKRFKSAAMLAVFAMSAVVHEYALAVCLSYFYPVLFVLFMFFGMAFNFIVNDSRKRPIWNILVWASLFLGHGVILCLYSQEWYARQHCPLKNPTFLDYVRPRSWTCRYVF

A short description of assay [3]: Deterioration action of cholesterol in plasma, F1B hamster on hyperfat foods. The conditions noted are these: for inhibiting an increase (%): 4th week, against hyperfat and ordinal foods groups; for Total Cholestrol in Plasma, At the 4th Week: fed 4 weeks. In kind it is in vivo, BIO F1B hybrid syrian hamster. Here is the method: A deterioration action of cholesterol in plasma was tested with BIO F1B hybrid syrian hamster (Mark C. K. et al., Atheorosclerosis, 91 (1991) 35-49: abbreviated as FIB hamster in the following) which has an accumulation of Cholesterol in blood vessel by cholesterol load. That is 4 groups of FIB hamster (male, 8 weeks old, about 100 g weight) were made, which had five hamsters respectively, and the hamsters were fed with the below-described feeds corresponding to each group for 4 weeks. At the 4th week from beginning feed, blood of the hamsters were drawn from their jugulars; and values of total cholesterols in plasma were measured with the enzyme method.

Setting [4] is: group (3): 0.03% compound added to hyperfat foods.
Setting [5] is: group (4): 0.3% compound added to hyperfat foods.

Regarding `CC(C)c1cccc(C(C)C)c1NC(=O)C(C)(C)CCCOc1ccc2c(c1)C=C(c1nccn1C)C(CCc1ccc(F)cc1)O2` (stereo not shown) [Control (1), 5-[2-(2-(4-fluorophenyl)ethyl)-3-(1-methyl-1H-imidazol-2-yl) -2H-benzopyran-6-yl]oxy-2,2-dimethyl-N-(2,6-diisopropylphenyl)pentanamide, reference compound], in assay [1], inhibition was half-maximal at 870 nM (IC50). For the same molecule, the “IC50 (HepG 2)/IC50 (J 774)” value at ACAT in J774 cell is recorded as 9.46.

In the case of `CCCCCCCCCCCCCCSCC(=O)Nc1c(C(C)C)cccc1C(C)C` [Control (2), N-(2,6-diisopropylphenyl) -2-(tetradecylthio)acetamide, reference compound], the IC50 – broadly, the midpoint of a concentration-inhibition curve – came to 150 nM at ACAT in J774 cell and 1400 nM in the assay with ACAT in HepG2 cell.

On to `CCCCCCCN(CCCCCSc1nc(-c2ccccc2)c(-c2ccccc2)[nH]1)c1nc2ccccc2o1` [Control (4), N4-[5-(4,5-diphenyl-1H-imidazol-2-ylthio)pentyl]-N-heptyl-2-benzoxazolamine, reference compound], for which the results for the IC50 (in assay [2]; in assay [1]; on ACAT in J774 cell) were 26 nM, 37 nM and 120 nM, respectively. Moreover, the “IC50 (HepG 2)/IC50 (J 774)” value at ACAT in J774 cell turned out to be 6.26.

With `CC(C)c1cccc(C(C)C)c1NC(=O)CSc1nc2ccccc2o1` [Example 1, 2-(benzoxazol-2-ylthio)-N-(2,6-diisopropylphenyl)acetamide], at ACAT in J774 cell, the IC50 turned out to be 1200 nM and the “IC50 (HepG 2)/IC50 (J 774)” value was 0.83. Further, the IC50 in the assay on ACAT in HepG2 cell came to 1000 nM.

As to `CC(C)c1cccc(C(C)C)c1NC(=O)CCSc1nc2ccccc2o1` [Example 2, 3-(benzoxazol-2-ylthio)-N-(2,6-diisopropylphenyl)propanamide], on ACAT in J774 cell, the IC50 amounted to 470 nM and the “IC50 (HepG 2)/IC50 (J 774)” value is 2.55. Moreover, in the assay on ACAT in HepG2 cell, the IC50 stood at 1200 nM.

For `CC(C)c1cccc(C(C)C)c1NC(=O)CCCCCSc1nc2ccccc2o1` [Example 5, 6-(benzoxazol-2-ylthio)-N-(2,6-diisopropylphenyl)hexanamide], the results for the half-maximal inhibitory concentration (IC50) in assay [2] and in assay [1] were 10 nM and 65 nM, respectively.

As to `CC(C)c1cccc(C(C)C)c1NC(=O)CCCCCCCCSc1nc2ccccc2o1` [Example 8, 9-(benzoxazol-2-ylthio)-N-(2,6-diisopropylphenyl)nonanamide], in assay [3] (setting [4]), the “inhibiting an increase (%)” value worked out at 80.5%; the “Total Cholestrol in Plasma, Before Dosage” value was determined as 155.5 ± 10.1 mg/dL; the “Total Cholestrol in Plasma, At the 4th Week” value amounted to 398.3 ± 64.3 mg/dL. Further, in assay [3] (setting [5]), the “inhibiting an increase (%)” value was found to be 111.7%; the “Total Cholestrol in Plasma, Before Dosage” value amounted to 164.3 ± 8.8 mg/dL; the “Total Cholestrol in Plasma, At the 4th Week” value was 170.1 ± 18.5 mg/dL.

`CC(C)c1cccc(C(C)C)c1NC(=O)CSc1nc2ccccc2[nH]1` [Example 23, 2-(benzimidazol-2-ylthio)-N-(2,6-diisopropylphenyl)acetamide]: the IC50 on ACAT in J774 cell was 2200 nM; in the assay on ACAT in HepG2 cell it was 12000 nM. At ACAT in J774 cell, the “IC50 (HepG 2)/IC50 (J 774)” value was 6.45.

Turning to `CC(C)c1cccc(C(C)C)c1NC(=O)CCCSc1nc2ccccc2s1` [Example 44, 4-(benzothiazol-2-ylthio)-N-(2,6-diisopropylphenyl)butanamide], the half-inhibitory concentration (IC50) on ACAT in J774 cell was 5600 nM; with ACAT in HepG2 cell it was 2100 nM. The “IC50 (HepG 2)/IC50 (J 774)” value on ACAT in J774 cell is 0.38.
